Assay results as given in ChEMBL document CHEMBL5331135, “Design, Synthesis, and Evaluation of Glucose Transporter Inhibitor-SN38 Conjugates for Targeting Colorectal Cancer” (J Med Chem, 2023).
The source made the active and inactive calls. The rule behind the calls is not given here.

What was measured:
[1] = system: COLO 205; assay: Cytotoxicity against human COLO 205 cells incubated for 48 hrs by SRB assay; type: functional, cell-based; conditions: COLO 205, 48 h
[2] = system: HT-29; assay: Cytotoxicity against human HT-29 cells incubated for 48 hrs by SRB assay; type: functional, cell-based; conditions: HT-29, 48 h
[3] = Stability in human plasma assessed as half life by RP-HPLC analysis; type: ADME, cell-free
[4] = system: HCT-116; assay: Cytotoxicity against human HCT-116 cells incubated for 48 hrs by SRB assay; type: functional, cell-based; conditions: HCT-116, 48 h
[5] = Toxicity in AOM/DSS-induced orthotopic CRC BALB/c mouse model assessed as lesions in spleen at 20 to 40 mg/kg, iv administered once every 2 days for 2 weeks by H&E staining based analysis; type: organism-based; conditions: in vivo, 336 h, dose 20-40 mg/kg
[6] = system: Colorectal cancer cell; assay: Antitumor activity against AOM/DSS-induced orthotopic CRC BALB/c mouse model assessed as reduction in tumor area administered intravenously once every 2 days for 2 weeks by dissecting microscopic analysis; type: functional; conditions: dose 20-40 mg/kg, route iv
[7] = Toxicity in AOM/DSS-induced orthotopic CRC BALB/c mouse model assessed as body weight loss at 40 mg/kg, iv administered once every 2 days for 2 weeks; type: organism-based; conditions: in vivo, 336 h
[8] = Drug uptake in human COLO 205 cells assessed as drug internalization in presence of 4.5 g/L glucose by fluorescence based assay; type: ADME, cell-based
[9] = Stability in human plasma assessed as formation of carboxylate product measured for 72 hrs by RP-HPLC analysis; type: ADME, cell-free
[10] = Toxicity in AOM/DSS-induced orthotopic CRC BALB/c mouse model assessed as lesions in liver at 20 to 40 mg/kg, iv administered once every 2 days for 2 weeks by H&E staining based analysis; type: organism-based; conditions: in vivo, 336 h, dose 20-40 mg/kg
[11] = Toxicity in AOM/DSS-induced orthotopic CRC BALB/c mouse model assessed as lesions in lung at 20 to 40 mg/kg, iv administered once every 2 days for 2 weeks by H&E staining based analysis; type: organism-based; conditions: in vivo, 336 h, dose 20-40 mg/kg
[12] = Antitumor activity against AOM/DSS-induced orthotopic CRC BALB/c mouse model assessed as reduction in tumor area at 40 mg/kg, iv administered once every 2 days for 2 weeks by dissecting microscopic analysis relative to control; type: functional, Colorectal cancer cell; parameters: scale not given: the % may be the effect or the level left
[13] = Toxicity in AOM/DSS-induced orthotopic CRC BALB/c mouse model assessed as lesions in heart at 20 to 40 mg/kg, iv administered once every 2 days for 2 weeks by H&E staining based analysis; type: organism-based; conditions: in vivo, 336 h, dose 20-40 mg/kg
[14] = Toxicity in AOM/DSS-induced orthotopic CRC BALB/c mouse model assessed as lesions in stomach at 20 to 40 mg/kg, iv administered once every 2 days for 2 weeks by H&E staining based analysis; type: organism-based; conditions: in vivo, 336 h, dose 20-40 mg/kg
[15] = Prodrug conversion in buffer assessed as SN38 release at 1 uM measured for 2 hrs by UHPLC-MS/MS analysis; type: ADME
[16] = Prodrug conversion in lung of BALB/c mouse assessed as SN38 release at 40 mg/kg, iv measured after 4 hrs by UHPLC-MS/MS analysis; type: ADME, organism-based; conditions: in vivo
[17] = Toxicity in AOM/DSS-induced orthotopic CRC BALB/c mouse model assessed as lesions in kidney at 20 to 40 mg/kg, iv administered once every 2 days for 2 weeks by H&E staining based analysis; type: organism-based; conditions: in vivo, 336 h, dose 20-40 mg/kg
[18] = Prodrug conversion in liver of BALB/c mouse assessed as SN38 release at 20 mg/kg, ip measured after 4 hrs by UHPLC-MS/MS analysis; type: ADME, organism-based; conditions: in vivo
[19] = Prodrug conversion in stomach of BALB/c mouse assessed as SN38 release at 20 mg/kg, ip measured after 4 hrs by UHPLC-MS/MS analysis; type: ADME, organism-based; conditions: in vivo
[20] = Prodrug conversion in heart of BALB/c mouse assessed as SN38 release at 20 mg/kg, ip measured after 4 hrs by UHPLC-MS/MS analysis; type: ADME, organism-based; conditions: in vivo
[21] = Biodistribution in gastrointestinal tract of BALB/c mouse at 20 mg/kg, ip measured after 4 hrs by UHPLC-MS/MS analysis; type: ADME, organism-based; conditions: in vivo
[22] = Prodrug conversion in tumor of BALB/c mouse assessed as SN38 release at 20 mg/kg, ip measured after 4 hrs by UHPLC-MS/MS analysis; type: ADME, organism-based, Neoplasm; conditions: in vivo
[23] = Prodrug conversion in lung of BALB/c mouse assessed as SN38 release at 20 mg/kg, ip measured after 4 hrs by UHPLC-MS/MS analysis; type: ADME, organism-based; conditions: in vivo
[24] = Toxicity in AOM/DSS-induced orthotopic CRC BALB/c mouse model assessed as body weight loss at 20 mg/kg, ip administered every other day for 2 weeks; type: organism-based; conditions: in vivo, 336 h
[25] = Prodrug conversion in kidney of BALB/c mouse assessed as SN38 release at 20 mg/kg, ip measured after 4 hrs by UHPLC-MS/MS analysis; type: ADME, organism-based; conditions: in vivo
[26] = Prodrug conversion in intestine of BALB/c mouse assessed as SN38 release at 20 mg/kg, ip measured after 4 hrs by UHPLC-MS/MS analysis; type: ADME, organism-based; conditions: in vivo
[27] = Prodrug conversion in brain of BALB/c mouse assessed as SN38 release at 20 mg/kg, ip measured after 4 hrs by UHPLC-MS/MS analysis; type: ADME, organism-based; conditions: in vivo
[28] = Biodistribution in colorectal tumor site of BALB/c mouse at 20 mg/kg, ip measured after 4 hrs by UHPLC-MS/MS analysis; type: ADME, organism-based, Neoplasm; conditions: in vivo
[29] = Prodrug conversion in spleen of BALB/c mouse assessed as SN38 release at 20 mg/kg, ip measured after 4 hrs by UHPLC-MS/MS analysis; type: ADME, organism-based; conditions: in vivo
[30] = Drug uptake in plasma of BALB/c mouse at 20 mg/kg, ip measured after 3 hrs by UHPLC-MS/MS analysis; type: ADME, organism-based; conditions: in vivo
[31] = system: Colorectal cancer cell; assay: Antitumor activity against AOM/DSS-induced orthotopic CRC BALB/c mouse model assessed as reduction in tumor area at 20 mg/kg, ip administered every other day for 2 weeks by dissecting microscopic analysis; type: functional, organism-based

CCc1c2c(nc3ccc(OC(=O)OCCSSCCOCCOCCOc4cc(O)c(C(=O)CCc5ccc(O)cc5)c(O[C@@H]5O[C@H](CO)[C@@H](O)[C@H](O)[C@H]5O)c4)cc13)-c1cc3c(c(=O)n1C2)COC(=O)[C@]3(O)CC
IC50 [1]: 640 nM
IC50 [2]: 510 nM
half-life [3]: 20 min
IC50 [4]: 42.3 nM

CCc1c2c(nc3ccc(OCc4ccc(NC(=O)[C@H](CCCNC(N)=O)NC(=O)[C@@H](NC(=O)CCCCN5C(=O)CC(SCCOCCOCCOc6cc(O)c(C(=O)CCc7ccc(O)cc7)c(O)c6)C5=O)C(C)C)cc4)cc13)-c1cc3c(c(=O)n1C2)COC(=O)[C@]3(O)CC (stereo partly drawn)
Activity [5]: Non-Toxic
IC50 [1]: 4590 nM
Activity [6]: Dose-Dependent Effect
Activity [7]: Non-Toxic
Drug uptake [8]: Active
Stability [9]: Stable
Activity [10]: Non-Toxic
Activity [11]: Non-Toxic
Activity [12]: 75%
IC50 [2]: > 100000 nM
Activity [13]: Non-Toxic
Activity [14]: Non-Toxic
Drug metabolism [15]: Not Active
half-life [3]: 2160 min
Drug metabolism [16]: Metabolite_Notdetected
IC50 [4]: 7430 nM
Activity [17]: Non-Toxic

CCc1c2c(nc3ccc(OC(=O)OCCSSCCOCCOCCOc4cc(O)c(C(=O)CCc5ccc(O)cc5)c(O)c4)cc13)-c1cc3c(c(=O)n1C2)COC(=O)[C@]3(O)CC
Drug metabolism [18]: Metabolite_Detected
Drug metabolism [19]: Metabolite_Detected
IC50 [1]: 570 nM
Drug metabolism [20]: Metabolite_Detected
Drug uptake [21]: Active
Drug uptake [8]: Active
Drug metabolism [22]: Metabolite_Detected
Drug metabolism [23]: Metabolite_Detected
Activity [24]: Non-Toxic
Drug metabolism [25]: Metabolite_Detected
IC50 [2]: 310 nM
Drug metabolism [26]: Metabolite_Detected
Drug metabolism [27]: Metabolite_Detected
half-life [3]: 50 min
Drug uptake [28]: Active
Drug metabolism [29]: Metabolite_Detected
IC50 [4]: 34.1 nM
Drug uptake [30]: Not Active
Activity [31]: Active

O=C(CCc1ccc(O)cc1)c1c(O)cc(O)cc1O[C@@H]1O[C@H](CO)[C@@H](O)[C@H](O)[C@H]1O [PHLORIZIN]
IC50 [1]: > 100000 nM
IC50 [2]: > 100000 nM
IC50 [4]: > 100000 nM
